ChEMBL document CHEMBL1201862, “PubChem BioAssay data set” (2004)
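Exposure lasted 48 hours, with cells grown in 96-well plates and compounds tested at five concentrations. Here, GI50 denotes the concentration required for 50% inhibition of growth.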 Calls of active or inactive are those of the source. Cut-off read from the data, not from the text of the source: active = GI50 up to about 1.1 µM and inactive = higher.

Key:
Assay in all cases: inhibition of tumour cell growth, NCI panel, 48 h
CCRF-CEM = test system: CCRF-CEM
DMS-273 = test system: DMS-273
EKVX = test system: EKVX
HCT-116 = test system: HCT-116
HOP-62 = test system: HOP-62
HOP-92 = test system: HOP-92
HT-29 = test system: HT-29
Malme-3M = test system: Malme-3M
NCI-H23 = test system: NCI-H23
NCI-H460 = test system: NCI-H460
OVCAR-4 = test system: OVCAR-4
OVCAR-5 = test system: OVCAR-5
OVCAR-8 = test system: OVCAR-8
SF-295 = test system: SF-295
SK-MEL-28 = test system: SK-MEL-28
SNB-19 = test system: SNB-19
SR = test system: SR
UACC-62 = test system: UACC-62
NCI-H226 = test system: NCI-H226

Measured: GI50

O=C(O)C1CCCCN1C(=O)c1ccccc1 (stereo unspecified)
inactive: CCRF-CEM > 100 µM | DMS-273 > 100 µM | EKVX > 100 µM | HCT-116 > 100 µM | HOP-62 > 100 µM | HOP-92 > 100 µM | HT-29 > 100 µM | Malme-3M > 100 µM | NCI-H23 > 100 µM | NCI-H460 > 100 µM | OVCAR-4 > 100 µM | OVCAR-5 > 100 µM | OVCAR-8 > 100 µM | SF-295 > 100 µM | SK-MEL-28 > 100 µM | SNB-19 > 100 µM | SR > 100 µM | UACC-62 > 100 µM

CC(=O)OCC1OC(N2C(=O)/C(=N\NC(N)=S)c3ccc([N+](=O)[O-])cc32)C(OC(C)=O)C1OC(C)=O (stereo unspecified)
inactive: CCRF-CEM 12.9 µM | DMS-273 17.4 µM | EKVX 36.6 µM | HCT-116 13.7 µM | HOP-62 31.3 µM | HOP-92 43.4 µM | HT-29 30 µM | Malme-3M 33.7 µM | NCI-H226 28.6 µM | NCI-H23 16.4 µM | NCI-H460 20.1 µM | OVCAR-4 19 µM | OVCAR-5 61.2 µM | OVCAR-8 19.4 µM | SF-295 29.1 µM | SK-MEL-28 29.2 µM | SNB-19 62.5 µM | SR 5.98 µM | UACC-62 13.9 µM

C/N=C1\S/C(=N\c2ccc(N(C)C)cc2)N1C
inactive: CCRF-CEM 36.1 µM | DMS-273 54.1 µM | EKVX 25 µM | HCT-116 32.7 µM | HOP-62 > 100 µM | HOP-92 21.8 µM | HT-29 28.2 µM | Malme-3M 39.9 µM | NCI-H226 52.1 µM | NCI-H23 32.1 µM | NCI-H460 36.3 µM | OVCAR-4 44.1 µM | OVCAR-5 75.5 µM | OVCAR-8 35.1 µM | SF-295 40.4 µM | SK-MEL-28 38.8 µM | SNB-19 42.2 µM | SR 46.1 µM | UACC-62 33.5 µM

O=C1N2Cc3c4ccc5c3CN3C(=O)N6Cc7c(ccc(c7CN1C6(c1ccccc1)C23c1ccccc1)OCCOCCOc1cc(Br)c(Br)cc1OCCOCCO4)OCCOCCOc1cc(Br)c(Br)cc1OCCOCCO5 (stereo unspecified)
inactive: CCRF-CEM > 100 µM | DMS-273 > 100 µM | EKVX > 100 µM | HCT-116 > 100 µM | HOP-62 40.8 µM | HOP-92 39.2 µM | HT-29 > 100 µM | Malme-3M 75.5 µM | NCI-H226 > 100 µM | NCI-H23 > 100 µM | NCI-H460 > 100 µM | OVCAR-4 36.5 µM | OVCAR-8 > 100 µM | SK-MEL-28 > 100 µM | SNB-19 > 100 µM | SR > 100 µM | UACC-62 > 100 µM

CCNC(=O)/C=C/CCC#Cc1ccc(-c2ccc(-c3cccs3)s2)s1
inactive: CCRF-CEM > 100 µM | DMS-273 > 100 µM | EKVX > 100 µM | HCT-116 > 100 µM | HOP-62 > 100 µM | HOP-92 > 100 µM | HT-29 > 100 µM | Malme-3M 3.52 µM | NCI-H226 > 100 µM | NCI-H23 > 100 µM | NCI-H460 > 100 µM | OVCAR-4 > 100 µM | OVCAR-5 > 100 µM | OVCAR-8 > 100 µM | SF-295 > 100 µM | SNB-19 > 100 µM | SR > 100 µM | UACC-62 2.9 µM

O=C(O)CCSC(=S)Nc1cccc(F)c1
inactive: DMS-273 46.9 µM | EKVX 18.6 µM | HCT-116 97.3 µM | HOP-62 56.4 µM | HOP-92 25 µM | HT-29 80 µM | Malme-3M 48.6 µM | NCI-H226 33.7 µM | NCI-H23 36.1 µM | NCI-H460 83.9 µM | OVCAR-4 92.3 µM | OVCAR-5 > 100 µM | OVCAR-8 37.8 µM | SF-295 28.7 µM | SK-MEL-28 28 µM | SNB-19 45.2 µM | SR 39.2 µM | UACC-62 13.4 µM

CCC(C)COC(=O)c1ccc(/N=C\c2ccc(/C=N/c3ccc(C(=O)OCC(C)CC)cc3)cc2)cc1 (stereo unspecified)
inactive: CCRF-CEM > 100 µM | DMS-273 > 100 µM | EKVX > 100 µM | HCT-116 > 100 µM | HOP-62 > 100 µM | HOP-92 > 100 µM | HT-29 > 100 µM | Malme-3M > 100 µM | NCI-H226 > 100 µM | NCI-H23 > 100 µM | NCI-H460 > 100 µM | OVCAR-4 > 100 µM | OVCAR-5 > 100 µM | OVCAR-8 > 100 µM | SF-295 > 100 µM | SK-MEL-28 > 100 µM | SNB-19 > 100 µM | SR > 100 µM | UACC-62 > 100 µM

C=CCN1C(=O)CS/C1=N\NC(=O)c1c(C)nc2sccn12
inactive: CCRF-CEM > 100 µM | DMS-273 > 100 µM | EKVX > 100 µM | HCT-116 > 100 µM | HOP-62 > 100 µM | HOP-92 > 100 µM | HT-29 > 100 µM | Malme-3M > 100 µM | NCI-H226 > 100 µM | NCI-H23 > 100 µM | NCI-H460 > 100 µM | OVCAR-5 > 100 µM | OVCAR-8 > 100 µM | SF-295 > 100 µM | SK-MEL-28 > 100 µM | SNB-19 > 100 µM | SR > 100 µM | UACC-62 > 100 µM
